Type in all cases: cell-based
One data set has as its system HT1080 cells. Nature of the data set: RPA foci by immunofluorescence in HT1080 cells. On the procedure: (§1) Topotecan and aphidicolin were used in this study. For experiments where they were used to cause replication stress and DNA damage, cells were treated with topotecan 2 μg/mL for either 1 hour or 24 hours, or aphidicolin 1 μM for 20 hours. For replication fork stalling induction in the PCNA colocalisation experiments, cells were treated with aphidicolin 0.4 μM for 6-8 hours. Topotecan and aphidicolin were dissolved in DMSO. DMSO was used as a control.
(§2) Cells were transfected using Lipofectamine RNAiMAX transfection reagent (ThermoFisher Scientific) with an siRNA concentration of […]. For transfection in a 75 cm^2flask, 3 mL reduced serum medium Opti-MEM (Gibco) was combined with 15 μL of 20 μM siRNA, mixed gently to cover the surface area of the flask and incubated at room temperature for 5 minutes. 30 μL of Lipofectamine RNAiMAX transfection reagent was then added to the mixture, and mixed and incubated for a further 15 minutes at room temperature. Meanwhile, cells to be transfected were trypsinised, resuspended in DMEM supplemented with 10% FCS, and counted using a Beckman Coulter cell counter. 0.8-1×10^6 cells in DMEM supplemented with 10% FCS were directly pipetted onto the transfection mixture in the flask, and shaken gently to mix. Additional DMEM supplemented with 10% FCS was added to the flask up to a total volume of 15 mL. Cells were harvested 72 hours post-transfection for knockdown validation and subsequent experiments.
(§3) Cells cultured on coverslips were fixed in 2% paraformaldehyde in PBS at room temperature for 10 minutes. Cells fixed on coverslips were rinsed with deionised water, and then permeabilised using KCM buffer (120 mM potassium chloride, 20 mM NaCl, 10 mM Tris, pH 7.5, 0.1% Triton X-100) at room temperature for 10 minutes. Coverslips were blocked with antibody diluent buffer (ABDIL—20 mM Tris-Cl, pH 7.5, 2% BSA, 0.2% fish gelatine, 150 mM NaCl, 0.1% Triton X-100, 0.1% sodium azide) containing 100 μg/mL RNase A at room temperature for one hour. […] Quantitated analysis was conducted by automation with CellProfiler (Broad Institute).

The subject of another data set is ATR-CHK1 pathway. Nature of the data set: Western blot of ATR downstream effectors (p-CHK1 S345, p-RPA2 S33, pCHK2). The following applies: U-2 OS. On the procedure: Protein was extracted from 10^6 cells per sample by vigorous pipetting and incubation at room temperature for 30 minutes in 100 μL of EDTA-free 4× LDS buffer (106 mM Tris-Cl, 141 mM Tris-Base, 40% Glycerol, 2% LDS, 0.075% SERVA Blue G50) supplemented with 2.5% Benzonase® nuclease 25 U/μL (Novagen, Merck Millipore) and 2% beta-mercaptoethanol (Sigma). Following protein extraction, all samples were denatured at 90° C. for 15 minutes before resolving on NuPAGE® Novex® 4-12% Bis-Tris Mini Gels (Invitrogen) with 1×10^5 cells (10 μL) loaded per lane in NuPAGE® MES SDS running buffer (Invitrogen) at 200 V for 50 minutes. Gels were transferred onto a PVDF membrane (Immobilon-P, Millipore) in transfer buffer (190 mM glycine, 25 mM Tris and 10% methanol) at 100 V for 60 minutes. Membranes were stained with Ponceau-S for 30 minutes, de-stained then blocked for 1 hour at room temperature in 5% skim milk dissolved in PBS with 0.1% Tween-20 (PBST) or TBS with 0.1% Tween-20 (TBST) for phosphorylated proteins. Membranes were cut into appropriate segments based on the size markers, with each segment incubated with antibodies for proteins of interest diluted in 0.5% skim milk in PBST/TBST or 5% BSA overnight at 4° C. (Refer to Table 4 for the list of antibodies). Blots were then washed for 3×5 minutes in PBST/TBST followed by incubation for 1 hour at room temperature with appropriate secondary antibodies (See Table 5) diluted 1:5000 in 0.5% skim milk or 5% BSA in PBST/TBST. Blots were washed for 3×5 minutes in PBST/TBST before incubation with SuperSignal West Pico Chemiluminescent Substrate (ThermoFisher Scientific) for 5 minutes at room temperature. Blots were then exposed to a Luminescent Image Analyser (LAS-4000, Fujifilm).
To investigate the precise function of ZNF827 in the ATR pathway, the effect of ZNF827 depletion on the downstream effectors of ATR was examined. To activate ATR, U-2 OS cells were treated with DNA damage and replication stress inducing agents topotecan 2 μg/mL for 24 hours or aphidicolin 1 μM for 20 hours. […] Phosphorylation of CHK2 was not affected by ZNF827 depletion, further supporting that the role of ZNF827 in DNA damage and repair is independent of ATM (FIG. 6d).
(In general: A western blot detects proteins with antibodies after separation by electrophoresis.)

The next data set deals with U-2 OS cells. Briefly: RPA foci by immunofluorescence in U-2 OS cells. On the procedure:
as §1, §2, §3

The mark [1] stands for this setting: agent alone (topotecan 2 μg/mL 24 hr, or 72 hr siRNA knockdown in unchallenged cells).
[2] abbreviates: agent alone (topotecan 2 μg/mL 24 hours, aphidicolin 1 μM 20 hours, or siRNA knockdown in unchallenged cells).
The mark [3] stands for this setting: 72 hr siRNA knockdown of ZNF827 in topotecan-treated cells (2 μg/mL, 24 hr).

Results on two compounds are retold here after patent publication US20220305003A1, “METHODS OF TREATING CANCER WITH AN INHIBITOR OF ZNF827” (CHILDREN'S MEDICAL RESEARCH INSTITUTE, priority 2019, published 2022).

For `CC[C@@]1(O)C(=O)OCc2c1cc1n(c2=O)Cc2cc3c(CN(C)C)c(O)ccc3nc2-1` [topotecan], the “total nuclear RPA foci” value in the data set with HT1080 cells (setting [1]) was “RPA foci only became visible upon topotecan treatment”; in the data set on U-2 OS cells (setting [1]), “greatly induced RPA foci”. In the data set on ATR-CHK1 pathway (setting [2]), the “phosphorylation of CHK1 S345” value is on record as “became phosphorylated at S345”. The “phosphorylation of RPA S33” value in the data set on ATR-CHK1 pathway (topotecan 2 μg/mL 24 hours) was “phosphorylated at S33”.

As for “siZNF827: Stealth RNAi siRNA ZNF827HSS135819 duplex oligoribonucleotides (Invitrogen), SEQ ID NO: 12 and 13 (chain 1 GGGCAGUCUUCUGGCUGAGAAAUCA; chain 2 UGAUUUCUCAGCCAGAAGACUGCCC; listed as RNA, further chemistry not given here)”, the “total nuclear RPA foci” value in the data set with HT1080 cells (setting [3]) is given as “significantly greater increase in overall nuclear RPA foci”; in the data set with HT1080 cells (setting [1]), “did not change the total number of nuclear RPA foci”; with U-2 OS cells (setting [3]), “did not cause an observable increase in overall RPA foci”; in the data set with U-2 OS cells (setting [1]), “substantially increased the total number of nuclear RPA foci”. In addition, the “phosphorylation of CHK1 S345” value is “markedly suppressed” with ATR-CHK1 pathway (72 hr siRNA knockdown in topotecan- or aphidicolin-treated cells) and “reduced baseline phosphorylation of CHK1 S345” with ATR-CHK1 pathway (setting [2]). Moreover, the “phosphorylation of RPA S33” value with ATR-CHK1 pathway (72 hr siRNA knockdown in topotecan-treated cells) was “markedly suppressed”. The “phosphorylation of CHK2” value in the data set with ATR-CHK1 pathway (72 hr siRNA knockdown, topotecan 2 μg/mL 24 hr or DMSO) is listed as “not affected”.
